The values that follow come from ChEMBL document CHEMBL3259609, “Optimization of pancreatic lipase inhibition by Cudrania tricuspidata fruits using response surface methodology” (Bioorg Med Chem Lett, 2014).

Broadly, the inhibition is the share of the control response that was lost under treatment. A higher inhibition goes with a response far below the control. Broadly, the IC50 is the concentration needed to halve the response being measured.

Structures are written as SMILES.

In assay [1] the target is T1, Pancreatic triacylglycerol lipase (Sus scrofa) (UniProt P00591).
T1 sequence (whole entry): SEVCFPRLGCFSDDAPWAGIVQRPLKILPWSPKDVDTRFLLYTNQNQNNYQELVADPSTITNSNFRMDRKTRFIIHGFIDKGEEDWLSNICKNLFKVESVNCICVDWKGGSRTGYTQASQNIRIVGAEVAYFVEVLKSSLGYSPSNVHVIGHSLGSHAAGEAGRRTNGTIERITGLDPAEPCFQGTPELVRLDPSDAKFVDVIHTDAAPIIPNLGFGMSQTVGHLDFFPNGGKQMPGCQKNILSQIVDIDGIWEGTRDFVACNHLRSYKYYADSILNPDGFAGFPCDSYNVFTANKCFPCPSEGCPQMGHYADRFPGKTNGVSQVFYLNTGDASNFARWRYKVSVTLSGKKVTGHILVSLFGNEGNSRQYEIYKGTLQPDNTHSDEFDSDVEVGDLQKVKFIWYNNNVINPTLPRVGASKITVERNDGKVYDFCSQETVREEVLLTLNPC
As to conditions: 10 uM.
Description: Inhibition of porcine pancreatic lipase assessed as hydrolysis of p-NPB to p-nitrophenol at 10 uM by microplate reader relative to control

The target of assay [2] is T2, Pancreatic triacylglycerol lipase (Sus scrofa, UniProt P00591).
T2 sequence (P00591 whole entry): T1 sequence (whole entry)
Put plainly: Inhibition of porcine pancreatic lipase assessed as hydrolysis of p-NPB to p-nitrophenol by microplate reader.

In turn, `CC(C)=CCc1c(O)c(CC=C(C)C)c2occ(-c3ccc(O)cc3)c(=O)c2c1O` displayed an inhibition in assay [1] of 72.2%. The IC50 in assay [2] came to 65 µM.
